By HC50 is commonly meant the concentration that lyses half of the red blood cells. A high value points to weaker haemolysis.

Molecules are shown by their SMILES. Square brackets hold non-standard residues; d marks the D form. Peptide text beside a SMILES is read from it. Gly(N(CH2)2(3-indolyl)) = O=C(O)CNCCc1c[nH]c2ccccc12; Nspe = C[C@H](NCC(=O)O)c1ccccc1; Nlys = NCCCCNCC(=O)O Some results are limits rather than exact numbers.

The nature of series [1]: Analytical reversed-phase HPLC elution (hydrophobicity). Particulars: Table S1; analytical RP-HPLC, SunFire C18, water/ACN + 0.1% TFA, 5 to 100% B linear over 30 min, 1 mL/min, UV 220 nm; approximate comparison of hydrophobicity. The series is classed as physicochemical. In a few lines:
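Retention time (tR) reflects hydrophobicity, with detection at 220 nm. Elution used a 5–100% acetonitrile linear gradient over 30 min after a 2 min hold at 5%, then 5 min at 100%, with both phases containing 0.1% TFA. Column was an analytical C18 (4.6 × 250 mm, 5 μm) run at 1 mL/min.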

Another series has as its system rat erythrocytes. The experiment in a line: Hemolysis assay. The series is classed as cell-based. In a few lines:
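Washed Sprague-Dawley rat erythrocytes (10% suspension in PBS pH 7.4) mixed with peptoids (0–100 µM), 60 min at 37 °C; supernatant A540 expressed as % of 1% Triton X-100 lysis. HC10/HC50 are concentrations giving 10%/50% hemolysis; Hmax is hemolysis at 100 µM.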

As for `C[C@@H](c1ccccc1)N(CC(N)=O)C(=O)CN(C(=O)CN(CCCCN)C(=O)CN(C(=O)CN(CCCCN)C(=O)CN(CCCCN)C(=O)CN(CCc1c[nH]c2ccccc12)C(=O)CN(C(=O)CN(CCCCN)C(=O)CN(C(=O)CN(C(=O)CNCCCCN)[C@@H](C)c1ccccc1)[C@@H](C)c1ccccc1)[C@@H](C)c1ccccc1)[C@@H](C)c1ccccc1)[C@@H](C)c1ccccc1` [peptoid 25], the HPLC elution in series [1] was determined as 50.8 % MeCN. Also, the “Hmax (100 µM)” value with rat erythrocytes was 2.7±0.4%. Besides, in the series on rat erythrocytes (pH 7.4), the HC10 is recorded as above 100 µM and the HC50 was above 100 µM.
`C[C@@H](c1ccccc1)N(CC(N)=O)C(=O)CN(C(=O)CN(CCCCN)C(=O)CN(C(=O)CN(C(=O)CN(CCCCN)C(=O)CN(CCc1c[nH]c2ccccc12)C(=O)CN(CCCCN)C(=O)CN(CCCCN)C(=O)CN(C(=O)CN(C(=O)CNCCCCN)[C@@H](C)c1ccccc1)[C@@H](C)c1ccccc1)[C@@H](C)c1ccccc1)[C@@H](C)c1ccccc1)[C@@H](C)c1ccccc1` [peptoid 26]: in series [1], the HPLC elution was 49.5 % MeCN. Also, the “Hmax (100 µM)” value in the series on rat erythrocytes is reported as 0.7±0.1%. Besides, in the series with rat erythrocytes (pH 7.4), the HC10 is above 100 µM and the HC50 was above 100 µM.
Regarding `C[C@@H](c1ccccc1)N(CC(N)=O)C(=O)CN(C(=O)CN(CCCCN)C(=O)CN(C(=O)CN(C(=O)CN(CCCCN)C(=O)CN(CCc1c[nH]c2ccccc12)C(=O)CN(C(=O)CN(CCCCN)C(=O)CN(C(=O)CN(CCCCN)C(=O)CNCCCCN)[C@@H](C)c1ccccc1)[C@@H](C)c1ccccc1)[C@@H](C)c1ccccc1)[C@@H](C)c1ccccc1)[C@@H](C)c1ccccc1` [peptoid 27], in series [1], the HPLC elution is 50.7 % MeCN. In addition, the “Hmax (100 µM)” value with rat erythrocytes is listed as 5.9±0.2%. In addition, in the series on rat erythrocytes (pH 7.4), the HC10 is reported as above 100 µM and the HC50 was above 100 µM.
On to `C[C@@H](c1ccccc1)N(CC(=O)N(CCCCN)CC(=O)N(CCCCN)CC(=O)N(CCc1c[nH]c2ccccc12)CC(=O)N(CCc1c[nH]c2ccccc12)CC(N)=O)C(=O)CN(CCCCN)C(=O)CN(C(=O)CN(C(=O)CN(CCCCN)C(=O)CN(C(=O)CN(C(=O)CNCCCCN)[C@@H](C)c1ccccc1)[C@@H](C)c1ccccc1)[C@@H](C)c1ccccc1)[C@@H](C)c1ccccc1` [peptoid 28] (H-[Nlys][Nspe][Nspe][Nlys][Nspe][Nspe][Nlys][Nspe][Nlys][Nlys][Gly(N(CH2)2(3-indolyl))][Gly(N(CH2)2(3-indolyl))]-NH2), for which the HPLC elution in series [1] is reported as 48.6 % MeCN. Further, the “Hmax (100 µM)” value in the series with rat erythrocytes came to 8.9±1.4%. For the same compound, in the series on rat erythrocytes (pH 7.4), the HC10 is given as above 100 µM and the HC50 is given as above 100 µM.
On to `C[C@@H](c1ccccc1)N(CC(=O)N(CCCCN)CC(=O)N(CC(=O)N(CC(=O)N(CCCCN)CC(=O)N(CCc1c[nH]c2ccccc12)CC(=O)N(CCc1c[nH]c2ccccc12)CC(N)=O)[C@@H](C)c1ccccc1)[C@@H](C)c1ccccc1)C(=O)CN(CCCCN)C(=O)CN(CCCCN)C(=O)CN(C(=O)CN(C(=O)CNCCCCN)[C@@H](C)c1ccccc1)[C@@H](C)c1ccccc1` [peptoid 30] (H-[Nlys][Nspe][Nspe][Nlys][Nlys][Nspe][Nlys][Nspe][Nspe][Nlys][Gly(N(CH2)2(3-indolyl))][Gly(N(CH2)2(3-indolyl))]-NH2), for which the HPLC elution in series [1] worked out at 48.8 % MeCN. Also, the “Hmax (100 µM)” value with rat erythrocytes stood at 8.4±0.5%. Moreover, in the series with rat erythrocytes (pH 7.4), the HC10 is given as above 100 µM and the 50% haemolytic concentration (HC50) is above 100 µM.
Consider `C[C@@H](c1ccccc1)N(CC(=O)N(CCCCN)CC(=O)N(CC(=O)N(CC(=O)N(CCCCN)CC(=O)N(CC(=O)N(CC(=O)N(CCCCN)CC(=O)N(CCc1c[nH]c2ccccc12)CC(=O)N(CCc1c[nH]c2ccccc12)CC(N)=O)[C@@H](C)c1ccccc1)[C@@H](C)c1ccccc1)[C@@H](C)c1ccccc1)[C@@H](C)c1ccccc1)C(=O)CN(CCCCN)C(=O)CNCCCCN` [peptoid 31] (H-[Nlys][Nlys][Nspe][Nlys][Nspe][Nspe][Nlys][Nspe][Nspe][Nlys][Gly(N(CH2)2(3-indolyl))][Gly(N(CH2)2(3-indolyl))]-NH2), for which, in series [1], the HPLC elution was determined as 50.2 % MeCN. The “Hmax (100 µM)” value in the series with rat erythrocytes was 18.4±5.0%. In the series on rat erythrocytes (pH 7.4), this compound showed an HC10 of 59.0 µM and an HC50 above 100 µM.
As for `C[C@@H](c1ccccc1)N(CC(N)=O)C(=O)CN(C(=O)CN(CCCCN)C(=O)CN(C(=O)CN(CCCCN)C(=O)CN(CCCCN)C(=O)CN(C(=O)CN(C(=O)CN(CCCCN)C(=O)CN(CCc1c[nH]c2ccccc12)C(=O)CN(CCc1c[nH]c2ccccc12)C(=O)CNCCCCN)[C@@H](C)c1ccccc1)[C@@H](C)c1ccccc1)[C@@H](C)c1ccccc1)[C@@H](C)c1ccccc1` [peptoid 33], in series [1], the HPLC elution was 47.9 % MeCN. In the series with rat erythrocytes, the “Hmax (100 µM)” value was 5.0±0.2%. In the series on rat erythrocytes (pH 7.4), this compound returned an HC10 above 100 µM and an HC50 above 100 µM.
`C[C@@H](c1ccccc1)N(CC(N)=O)C(=O)CN(C(=O)CN(CCCCN)C(=O)CN(C(=O)CN(C(=O)CN(CCCCN)C(=O)CN(C(=O)CN(CCCCN)C(=O)CN(CCCCN)C(=O)CN(CCc1c[nH]c2ccccc12)C(=O)CN(CCc1c[nH]c2ccccc12)C(=O)CNCCCCN)[C@@H](C)c1ccccc1)[C@@H](C)c1ccccc1)[C@@H](C)c1ccccc1)[C@@H](C)c1ccccc1` [peptoid 34]: the HPLC elution in series [1] was determined as 48.6 % MeCN. Further, the “Hmax (100 µM)” value with rat erythrocytes is reported as 8.5±1.1%. In the series on rat erythrocytes (pH 7.4), this compound returned an HC10 above 100 µM and an HC50 above 100 µM.
Consider `C[C@@H](c1ccccc1)N(CC(N)=O)C(=O)CN(C(=O)CN(CCCCN)C(=O)CN(C(=O)CN(CCCCN)C(=O)CN(CCCCN)C(=O)CN(C(=O)CN(C(=O)CN(CCCCN)C(=O)CN(C(=O)CN(C(=O)CN(CCCCN)C(=O)CN(CCc1c[nH]c2ccccc12)C(=O)CNCCc1c[nH]c2ccccc12)[C@@H](C)c1ccccc1)[C@@H](C)c1ccccc1)[C@@H](C)c1ccccc1)[C@@H](C)c1ccccc1)[C@@H](C)c1ccccc1)[C@@H](C)c1ccccc1` [peptoid 35], for which the HPLC elution in series [1] was determined as 51.8 % MeCN. The “Hmax (100 µM)” value in the series on rat erythrocytes was 82.6±3.2%. In addition, in the series with rat erythrocytes (pH 7.4), the HC10 turned out to be 20.4 µM and the HC50 is recorded as 63.0 µM.
The like results for `C[C@@H](c1ccccc1)N(CC(N)=O)C(=O)CN(C(=O)CN(CCCCN)C(=O)CN(C(=O)CN(C(=O)CN(CCCCN)C(=O)CN(C(=O)CN(C(=O)CN(CCCCN)C(=O)CN(C(=O)CN(CCCCN)C(=O)CN(CCCCN)C(=O)CN(CCc1c[nH]c2ccccc12)C(=O)CNCCc1c[nH]c2ccccc12)[C@@H](C)c1ccccc1)[C@@H](C)c1ccccc1)[C@@H](C)c1ccccc1)[C@@H](C)c1ccccc1)[C@@H](C)c1ccccc1)[C@@H](C)c1ccccc1` [peptoid 36] were, in that order, 52.4 % MeCN, 89.1±3.4%, 15.3 µM and 39.4 µM.
Regarding `C[C@@H](c1ccccc1)N(CC(=O)N(CCCCN)CC(=O)N(CC(=O)N(CC(=O)N(CCCCN)CC(=O)N(CC(=O)N(CC(=O)N(CCCCN)CC(N)=O)[C@@H](C)c1ccccc1)[C@@H](C)c1ccccc1)[C@@H](C)c1ccccc1)[C@@H](C)c1ccccc1)C(=O)CN(C(=O)CN(CCCCN)C(=O)CN(CCc1c[nH]c2ccccc12)C(=O)CNCCc1c[nH]c2ccccc12)[C@@H](C)c1ccccc1` [peptoid 37] (H-[Gly(N(CH2)2(3-indolyl))][Gly(N(CH2)2(3-indolyl))][Nlys][Nspe][Nspe][Nlys][Nspe][Nspe][Nlys][Nspe][Nspe][Nlys]-NH2), the HPLC elution in series [1] came to 52.7 % MeCN. Further, the HC10 is recorded as 21.1 µM with rat erythrocytes (pH 7.4) and 13.2 µM in the series on rat erythrocytes (red cells of rat). Also, the HC50 in the series on rat erythrocytes (pH 7.4) is 57.0 µM; in the series on rat erythrocytes (red cells of rat), 38.6 µM.

These data come from paper PMC10460844, “Real‐Time Monitoring of Multitarget Antimicrobial Mechanisms of Peptoids Using Label‐Free Imaging with Optical Diffraction Tomography” (Advanced Science, 2023).
